Molecular target: T1, human TLR8 (Homo sapiens, UniProt Q9NR97)
T1 construct: host or cells: HEK293 (HEK-Blue hTLR8)
T1 sequence (Q9NR97 27-1041): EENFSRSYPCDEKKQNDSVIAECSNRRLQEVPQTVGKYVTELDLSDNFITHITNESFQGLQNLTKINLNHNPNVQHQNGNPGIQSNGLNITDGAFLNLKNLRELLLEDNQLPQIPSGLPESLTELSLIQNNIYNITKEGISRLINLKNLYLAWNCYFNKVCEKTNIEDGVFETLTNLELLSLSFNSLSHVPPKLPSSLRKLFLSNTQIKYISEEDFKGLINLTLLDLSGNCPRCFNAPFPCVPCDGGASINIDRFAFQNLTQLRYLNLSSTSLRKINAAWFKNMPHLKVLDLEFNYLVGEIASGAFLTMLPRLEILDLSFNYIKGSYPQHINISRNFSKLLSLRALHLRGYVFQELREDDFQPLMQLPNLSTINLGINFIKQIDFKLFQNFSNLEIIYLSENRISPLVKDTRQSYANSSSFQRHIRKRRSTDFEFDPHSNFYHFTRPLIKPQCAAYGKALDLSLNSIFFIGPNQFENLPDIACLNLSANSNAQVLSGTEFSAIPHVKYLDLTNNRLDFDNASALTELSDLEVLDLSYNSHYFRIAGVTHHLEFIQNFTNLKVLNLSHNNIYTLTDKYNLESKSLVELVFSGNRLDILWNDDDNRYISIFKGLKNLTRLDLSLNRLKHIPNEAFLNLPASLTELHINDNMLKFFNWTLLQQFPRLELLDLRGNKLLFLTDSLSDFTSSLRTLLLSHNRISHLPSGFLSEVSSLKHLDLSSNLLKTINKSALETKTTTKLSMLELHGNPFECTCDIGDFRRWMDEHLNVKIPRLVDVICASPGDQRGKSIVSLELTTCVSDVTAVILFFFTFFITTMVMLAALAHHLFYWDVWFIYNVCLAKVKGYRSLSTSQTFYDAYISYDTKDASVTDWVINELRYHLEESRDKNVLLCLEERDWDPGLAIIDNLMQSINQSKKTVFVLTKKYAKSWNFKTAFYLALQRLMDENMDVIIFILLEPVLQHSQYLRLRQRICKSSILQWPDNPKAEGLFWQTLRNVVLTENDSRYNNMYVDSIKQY
Assay: HEK293-Blue-hTLR-8 cells assay
Assay type: cell-based
Conditions: HEK293-Blue-hTLR8 cells, R848 stimulation, 20 hrs, SEAP reporter; read-out: HEK/hTLR8 IC50
Text: A stable HEK293-Blue-hTLR-8 cell line was purchased from InvivoGen (Cat. #: hkb-htlr8, San Diego, California, USA). These cells were originally designed for studying the stimulation of human TLR8 by monitoring the activation of NF-κB. A SEAP (secreted embryonic alkaline phosphatase) reporter gene was placed under the control of the IFN-β minimal promoter fused to five NF-κB and AP-1-binding sites. The SEAP was induced by activating NF-κB and AP-1 via stimulating HEK-Blue hTLR8 cells with TLR8 ligands. Therefore the reporter expression was declined by TLR8 antagonist under the stimulation of a ligand, such as R848, for incubation of 20 hrs. The cell culture supernatant SEAP reporter activity was determined using QUANTI-Blue™ kit (Cat. #: rep-qb1, Invivogen, San Diego, Ca, USA) at a wavelength of 640 nm, a detection medium that turns purple or blue in the presence of alkaline phosphatase.
HEK293-Blue-hTLR8 cells were incubated at a density of 250,000˜450,000 cells/mL in a volume of 170 μL in a 96-well plate in Dulbecco's Modified Eagle's medium (DMEM) containing 4.5 g/L glucose, 50 U/mL penicillin, […], […], 2 mM L-glutamine, 10% (v/v) heat-inactivated fetal bovine serum with addition of 20 μL test compound in a serial dilution in the presence of final DMSO at 1% and 10 μL of 60 uM R848 in above DMEM, perform incubation under 37° C. in a CO2 incubator for 20 hrs. Then 20 μL of the supernatant from each well was incubated with 180 μL Quanti-blue substrate solution at 37° C. for 2 hrs and the absorbance was read at 620˜655 nm using a spectrophotometer. The signaling pathway that TLR8 activation leads to downstream NF-κB activation has been widely accepted, and therefore similar reporter assay was modified for evaluating TLR8 antagonist.

Structure (SMILES) | IC50 [nM]
C[C@@H]1CN(c2ccc(C#N)c3ncccc23)C[C@@H]2C[C@H](c3ccc(N4CCNCC4)nc3)CCN21 (stereo in doubt) [Example 2, 5-[(4R,8R)-4-methyl-8-(6-piperazin-1-yl-3-pyridyl)-1,3,4,6,7,8,9,9a-octahydropyrido[1,2-a]pyrazin-2-yl]quinoline-8-carbonitrile] | 19
C[C@@H]1CN(c2ccc(C#N)c3ncccc23)C[C@@H]2CC(c3ccc(C[C@@H]4CNCCO4)cc3)CCN21 (stereo in doubt) [Example 25, 5-[(4R,8R,9aS)-4-methyl-8-[4-[[(2R)-morpholin-2-yl]methyl]phenyl]-1,3,4,6,7,8,9,9a-octahydropyrido[1,2-a]pyrazin-2-yl]quinoline-8-carbonitrile] | 30
C[C@@H]1CN(c2ccc(C#N)c3ncccc23)C[C@@H]2C[C@H](NCc3ccc(N4CCNCC4)cc3)CCN21 [Example 1, 5-[(4R,8R,9aS)-4-methyl-8-[(4-piperazin-1-ylphenyl)methylamino]-1,3,4,6,7,8,9,9a-octahydropyrido[1,2-a]pyrazin-2-yl]quinoline-8-carbonitrile] | 67
C[C@@H]1CN(c2ccc(C#N)c3ncccc23)CC2C[C@H](c3ccc(N4CCNCC4)cc3)CCN21 (stereo partly drawn) [Example 3, 5-[(4R,8R)-4-methyl-8-(4-piperazin-1-ylphenyl)-1,3,4,6,7,8,9,9a-octahydropyrido[1,2-a]pyrazin-2-yl]quinoline-8-carbonitrile] | 23
C[C@@H]1CN(c2ccc(C#N)c3ncccc23)C[C@@H]2C[C@H](c3ccc(N4CCNCC4)nc3)CCN21 [Example 4, 5-[(4R,8R,9aS)-4-methyl-8-(6-piperazin-1-yl-3-pyridyl)-1,3,4,6,7,8,9,9a-octahydropyrido[1,2-a]pyrazin-2-yl]quinoline-8-carbonitrile] | 18
C[C@@H]1CN(c2ccc(C#N)c3ncccc23)C[C@@H]2C[C@H](c3ccc(N4CC(N)C4)nc3)CCN21 [Example 7, 5-[(4R,8R,9aS)-8-[6-(3-aminoazetidin-1-yl)-3-pyridyl]-4-methyl-1,3,4,6,7,8,9,9a-octahydropyrido[1,2-a]pyrazin-2-yl]quinoline-8-carbonitrile] | 125
CO[C@H]1CN(c2ccc([C@@H]3CCN4[C@@H](C3)CN(c3ccc(C#N)c5ncccc35)C[C@H]4C)cn2)C[C@H]1N [Example 12, 5-[(4R,8R,9aS)-8-[6-[(3R,4S)-3-amino-4-methoxy-pyrrolidin-1-yl]-3-pyridyl]-4-methyl-1,3,4,6,7,8,9,9a-octahydropyrido[1,2-a]pyrazin-2-yl]quinoline-8-carbonitrile] | 45
CO[C@@H]1CN(c2ccc([C@@H]3CCN4[C@@H](C3)CN(c3ccc(C#N)c5ncccc35)C[C@H]4C)cn2)C[C@@H]1N [Example 13, 5-[(4R,8R,9aS)-8-[6-[(3S,4R)-3-amino-4-methoxy-pyrrolidin-1-yl]-3-pyridyl]-4-methyl-1,3,4,6,7,8,9,9a-octahydropyrido[1,2-a]pyrazin-2-yl]quinoline-8-carbonitrile] | 46
CO[C@@H]1CN(c2ccc([C@@H]3CCN4[C@@H](C3)CN(c3ccc(C#N)c5ncccc35)C[C@H]4C)cn2)C[C@H]1N [Example 14, 5-[(4R,8R,9aS)-8-[6-[(3R,4R)-3-amino-4-methoxy-pyrrolidin-1-yl]-3-pyridyl]-4-methyl-1,3,4,6,7,8,9,9a-octahydropyrido[1,2-a]pyrazin-2-yl]quinoline-8-carbonitrile] | 48
C[C@@H]1CN(c2ccc(C#N)c3ncccc23)C[C@H]2C[C@H](c3ccc(N4CCNCC4)nc3)CCN21 [Example 15, 5-[(4R,8R,9aR)-4-methyl-8-(6-piperazin-1-yl-3-pyridyl)-1,3,4,6,7,8,9,9a-octahydropyrido[1,2-a]pyrazin-2-yl]quinoline-8-carbonitrile] | 80
C[C@@H]1CN(c2ccc(C#N)c3ncccc23)C[C@@H]2C[C@@H](Oc3ccc(N4CCNCC4)nc3)CCN21 [Example 16, 5-[(4R,8S,9aS)-4-methyl-8-[(6-piperazin-1-yl-3-pyridyl)oxy]-1,3,4,6,7,8,9,9a-octahydropyrido[1,2-a]pyrazin-2-yl]quinoline-8-carbonitrile] | 8
C[C@@H]1CN(c2ccc(C#N)c3ncccc23)C[C@@H]2C[C@@H](NCc3ccc(N4CCNCC4)cc3)CCN21 [Example 17, 5-[(4R,8S,9aS)-4-methyl-8-[(4-piperazin-1-ylphenyl)methylamino]-1,3,4,6,7,8,9,9a-octahydropyrido[1,2-a]pyrazin-2-yl]quinoline-8-carbonitrile] | 54
C[C@@H]1CN(c2ccc(C#N)c3ncccc23)C[C@@H]2C[C@@H](Oc3cnc(N4CCNCC4)nc3)CCN21 [Example 18, 5-[(4R,8S,9aS)-4-methyl-8-(2-piperazin-1-ylpyrimidin-5-yl)oxy-1,3,4,6,7,8,9,9a-octahydropyrido[1,2-a]pyrazin-2-yl]quinoline-8-carbonitrile] | 6
C[C@@H]1CN(c2ccc(C#N)c3ncccc23)C[C@@H]2C[C@H](c3ccc(N4C[C@@H](N)[C@@H](F)C4)nc3)CCN21 [Example 19, 5-[(4R,8R,9aS)-8-[6-[(3R,4S)-3-amino-4-fluoro-pyrrolidin-1-yl]-3-pyridyl]-4-methyl-1,3,4,6,7,8,9,9a-octahydropyrido[1,2-a]pyrazin-2-yl]quinoline-8-carbonitrile] | 63
[2H]c1ccc2c(N3C[C@@H]4C[C@H](Nc5ccc(C[C@@H]6CNCCO6)cc5)CCN4[C@H](C)C3)ccc(C#N)c2n1 [Example 22, 5-[(4R,8R,9aS)-4-methyl-8-[4-[[(2R)-morpholin-2-yl]methyl]anilino]-1,3,4,6,7,8,9,9a-octahydropyrido[1,2-a]pyrazin-2-yl]-2-deuterio-quinoline-8-carbonitrile] | 49
C[C@@H]1CN(c2ccc(C#N)c3ncccc23)C[C@@H]2C[C@H](c3ccc(N4CCOC[C@@H](N)C4)nc3)CCN21 [Example 23, 5-[(4R,8R,9aS)-8[6-[(6S)-6-amino-1,4-oxazepan-4-yl]-3-pyridyl]-4-methyl-1,3,4,6,7,8,9,9a-octahydropyrido[1,2-a]pyrazin-2-yl]quinoline-8-carbonitrile] | 79
C[C@@H]1CN(c2ccc(C#N)c3ncccc23)C[C@@H]2C[C@@H](c3ccc(C4CNCCO4)cc3)CCN21 (stereo partly drawn) [Example 24, 5-[(4R,8S,9aS)-4-methyl-8-(4-morpholin-2-ylphenyl)-1,3,4,6,7,8,9,9a-octahydropyrido[1,2-a]pyrazin-2-yl]quinoline-8-carbonitrile] | 14
C[C@@H]1CN(c2ccc(C#N)c3ncccc23)C[C@@H]2C[C@@H](c3ccc(CC4CNCCO4)cc3)CCN21 (stereo partly drawn) [Example 26, 5-[(4R,8S,9aS)-4-methyl-8-[4-(morpholin-2-ylmethyl)phenyl]-1,3,4,6,7,8,9,9a-octahydropyrido[1,2-a]pyrazin-2-yl]quinoline-8-carbonitrile] | 27
C[C@@H]1CN(c2ccc(C#N)c3ncccc23)C[C@@H]2C[C@H](c3ccc([C@@H]4CNCCO4)cc3)CCN21 [Example 27, 5-[(4R,8R,9aS)-4-methyl-8-[4-[(2R)-morpholin-2-yl]phenyl]-1,3,4,6,7,8,9,9a-octahydropyrido[1,2-a]pyrazin-2-yl]quinoline-8-carbonitrile] | 18
